Measured values reported in US8148422B2, “Sulfonamides as TRPM8 modulators” (Janssen Pharmaceutica, NV, priority 2008, dated 2012).

Target: T1, canine TRPM8 (Canis lupus familiaris, UniProt Q1A7N1)
T1 construct: expressed in transfected cells
Assay: In vitro canine TRPM8 functional assay (Ca2+-sensitive fluorescent dye, FLIPR or FDSS, icilin challenge)
Type: cell-based
Settings: HEK293 cells stably expressing canine TRPM8; for inhibition at 0.2 µM: 0.2 μM compound, icilin challenge; for IC50: icilin at approx. 80% maximal response, eight-point dose-response, single determinations unless otherwise noted, read-out: IC50
Procedure: The functional activity of compounds of the formula (I) was determined by measuring changes in intracellular calcium concentration using a Ca^2+-sensitive fluorescent dye. The changes in fluorescent signal were monitored by a fluorescence plate reader, either a FLIPR™ (Molecular Devices) or FDSS (Hamamatsu).
At 24 hrs prior to assay, HEK293 cells stably expressing canine TRPM8 were seeded in culture medium in black wall, clear-base poly-D-lysine coated 384-well plates (BD Biosciences, NJ, USA) and grown overnight in 5% CO2 at 37° C. On assay day, growth media was removed and cells were loaded with Calcium 3 Dye (Molecular Devices) for 35 min at 37° C., under 5% CO2 and then for 25 min at room temperature and atmosphere. Subsequently, cells were tested for agonist-induced increases in intracellular Ca^2+ levels using FLIPR™ or FDSS. Cells were challenged with a compound of the Formula (I) (at varying concentrations) and intracellular Ca^2+ was measured for 5 min prior to the addition of icilin to all wells to achieve a final concentration that produces approximately an 80% maximal response. EC50 or IC50 values for compounds of the present invention were determined from eight-point dose-response studies. Curves were generated using the average of quadruplicate wells for each data point.

T1 sequence (Q1A7N1 1-1104): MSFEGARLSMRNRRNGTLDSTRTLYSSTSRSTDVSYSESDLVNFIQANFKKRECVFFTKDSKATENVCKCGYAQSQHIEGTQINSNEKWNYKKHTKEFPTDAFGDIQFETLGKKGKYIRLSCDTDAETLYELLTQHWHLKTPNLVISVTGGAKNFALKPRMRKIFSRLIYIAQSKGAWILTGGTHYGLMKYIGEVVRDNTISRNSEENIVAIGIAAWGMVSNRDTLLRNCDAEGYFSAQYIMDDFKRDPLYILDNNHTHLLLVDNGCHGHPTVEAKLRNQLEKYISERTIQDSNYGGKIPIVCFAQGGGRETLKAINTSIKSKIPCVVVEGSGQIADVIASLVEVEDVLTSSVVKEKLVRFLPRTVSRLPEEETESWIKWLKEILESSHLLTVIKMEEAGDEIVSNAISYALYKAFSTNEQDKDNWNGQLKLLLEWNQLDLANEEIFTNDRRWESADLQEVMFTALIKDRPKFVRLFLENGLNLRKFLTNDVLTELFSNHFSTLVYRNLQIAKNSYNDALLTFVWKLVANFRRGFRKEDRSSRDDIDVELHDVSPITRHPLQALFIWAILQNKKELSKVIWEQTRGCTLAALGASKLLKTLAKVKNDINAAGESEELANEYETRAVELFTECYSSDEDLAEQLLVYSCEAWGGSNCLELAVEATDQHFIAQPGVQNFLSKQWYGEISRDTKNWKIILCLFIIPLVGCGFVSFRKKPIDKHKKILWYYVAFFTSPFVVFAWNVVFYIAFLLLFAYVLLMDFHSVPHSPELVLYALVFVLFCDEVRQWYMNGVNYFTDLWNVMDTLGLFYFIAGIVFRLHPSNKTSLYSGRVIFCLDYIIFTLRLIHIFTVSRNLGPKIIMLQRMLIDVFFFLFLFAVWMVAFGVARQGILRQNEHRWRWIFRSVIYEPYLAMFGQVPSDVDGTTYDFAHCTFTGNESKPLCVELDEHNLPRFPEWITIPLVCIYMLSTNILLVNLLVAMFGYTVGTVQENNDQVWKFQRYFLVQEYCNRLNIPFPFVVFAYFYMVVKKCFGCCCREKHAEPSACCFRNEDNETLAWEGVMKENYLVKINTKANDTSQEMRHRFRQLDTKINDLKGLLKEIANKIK

SMILES	inhibition at 0.2 µM	IC50
CCCN(CCC)CCS(=O)(=O)N(Cc1ccc(OC(F)(F)F)cc1)c1cc2ccccc2s1 [Cpd 1, N-(Benzo[b]thiophen-2-yl)-N-(4-trifluoromethoxy-benzyl)-2-(di-propylamino)ethylsulfonamide]	78%	114 nM
O=S(=O)(CCN1CCCCC1)N(Cc1ccc(OC(F)(F)F)cc1)c1cc2ccccc2s1 [Cpd 2, N-(Benzo[b]thiophen-2-yl)-N-(4-trifluoromethoxy-benzyl)-2-(piperidin-1-yl)ethylsulfonamide]	92%	33 nM
O=S(=O)(CCN1CCCCC1)N(Cc1ccc(OC(F)(F)F)cc1)c1sc2ccccc2c1Cl [Cpd 3, N-(3-Chlorobenzo[b]thiophen-2-yl)-N-(4-trifluoromethoxy-benzyl)-2-(piperidin-1-yl)ethylsulfonamide]	97%	30 nM
CCCN(CCC)CCS(=O)(=O)N(Cc1ccc(OC(F)(F)F)cc1)c1sc2ccccc2c1Cl [Cpd 4, N-(3-Chlorobenzo[b]thiophen-2-yl)-N-(4-trifluoromethoxy-benzyl)-2-(di-propylamino)ethylsulfonamide]	98%	24 nM
CCCN(CCC)CCS(=O)(=O)N(Cc1ccc(OC(F)(F)F)cc1)c1sc2ccccc2c1Br [Cpd 5, N-(3-Bromobenzo[b]thiophen-2-yl)-N-(4-trifluoromethoxy-benzyl)-2-(di-propylamino)ethylsulfonamide]	101%	22 nM
CCCN(CCC)CCS(=O)(=O)N(Cc1ccc(OC(F)(F)F)cc1)c1sc2ccccc2c1C [Cpd 6, N-(3-Methylbenzo[b]thiophen-2-yl)-N-(4-trifluoromethoxy-benzyl)-2-(di-propylamino)ethylsulfonamide]	99%	9 nM
CCCN(C)CCS(=O)(=O)N(Cc1ccc(OC(F)(F)F)cc1)c1sc2ccccc2c1C [Cpd 7, N-(3-Methylbenzo[b]thiophen-2-yl)-N-(4-trifluoromethoxy-benzyl)-2-(methyl-propylamino)ethylsulfonamide]	99%	29 nM
Cc1c(N(Cc2ccc(OC(F)(F)F)cc2)S(=O)(=O)CCN(C)C(C)C)sc2ccccc12 [Cpd 8, N-(3-Methylbenzo[b]thiophen-2-yl)-N-(4-trifluoromethoxy-benzyl)-2-(methyl-isopropylamino)ethylsulfonamide]	94%	50 nM
CCN(CC)CCS(=O)(=O)N(Cc1ccc(OC(F)(F)F)cc1)c1sc2ccccc2c1C [Cpd 9, N-(3-Methylbenzo[b]thiophen-2-yl)-N-(4-trifluoromethoxy-benzyl)-2-(diethylamino)ethylsulfonamide]	101%	19 nM
Cc1c(N(Cc2ccc(OC(F)(F)F)cc2)S(=O)(=O)CCN(C)CCO)sc2ccccc12 [Cpd 10, N-(3-Methylbenzo[b]thiophen-2-yl)-N-(4-trifluoromethoxy-benzyl)-2-(methyl-2-hydroxyethylamino)ethylsulfonamide]	98%	29 nM
Cc1c(N(Cc2ccc(OC(F)(F)F)cc2)S(=O)(=O)CCN(C)CC(C)C)sc2ccccc12 [Cpd 11, N-(3-Methylbenzo[b]thiophen-2-yl)-N-(4-trifluoromethoxy-benzyl)-2-(methyl-isobutylamino)ethylsulfonamide]	100%	22 nM
CCCCN(C)CCS(=O)(=O)N(Cc1ccc(OC(F)(F)F)cc1)c1sc2ccccc2c1C [Cpd 12, N-(3-Methylbenzo[b]thiophen-2-yl)-N-(4-trifluoromethoxy-benzyl)-2-(methyl-butylamino)ethylsulfonamide]	96%	43 nM
Cc1c(N(Cc2ccc(OC(F)(F)F)cc2)S(=O)(=O)CCNCCC(F)(F)F)sc2ccccc12 [Cpd 13, N-(3-Methylbenzo[b]thiophen-2-yl)-N-(4-trifluoromethoxy-benzyl)-2-(3,3,3-trifluoropropylamino)ethylsulfonamide]	72%	74 nM
CCCCN(CCCC)CCS(=O)(=O)N(Cc1ccc(OC(F)(F)F)cc1)c1sc2ccccc2c1C [Cpd 15, N-(3-Methylbenzo[b]thiophen-2-yl)-N-(4-trifluoromethoxy-benzyl)-2-(dibutylamino)ethylsulfonamide]	100%	22 nM
Cc1c(N(Cc2ccc(OC(F)(F)F)cc2)S(=O)(=O)CCN(C)CCc2ccccc2)sc2ccccc12 [Cpd 17, N-(3-Methylbenzo[b]thiophen-2-yl)-N-(4-trifluoromethoxy-benzyl)-2-(methyl-2-phenylethylamino)ethylsulfonamide]	98%	22 nM
Cc1c(N(Cc2ccc(OC(F)(F)F)cc2)S(=O)(=O)CCN2CCCCC2)sc2ccccc12 [Cpd 18, N-(3-Methylbenzo[b]thiophen-2-yl)-N-(4-trifluoromethoxy-benzyl)-2-(piperidin-1-yl)ethylsulfonamide]	99%	26 nM
Cc1c(N(Cc2ccc(OC(F)(F)F)cc2)S(=O)(=O)CCN2CCC(C)CC2)sc2ccccc12 [Cpd 19, N-(3-Methylbenzo[b]thiophen-2-yl)-N-(4-trifluoromethoxy-benzyl)-2-(4-methylpiperidin-1-yl)ethylsulfonamide]	99%	34 nM
Cc1c(N(Cc2ccc(OC(F)(F)F)cc2)S(=O)(=O)CCN2CCC(O)CC2)sc2ccccc12 [Cpd 20, N-(3-Methylbenzo[b]thiophen-2-yl)-N-(4-trifluoromethoxy-benzyl)-2-(4-hydroxypiperidin-1-yl)ethylsulfonamide]	99%	25 nM
Cc1c(N(Cc2ccc(OC(F)(F)F)cc2)S(=O)(=O)CCN2CC(C)CC(C)C2)sc2ccccc12 (centres unmarked) [Cpd 21, N-(3-Methylbenzo[b]thiophen-2-yl)-N-(4-trifluoromethoxy-benzyl)-2-(3,5-dimethylpiperidin-1-yl)ethylsulfonamide]	100%	52 nM
Cc1c(N(Cc2ccc(OC(F)(F)F)cc2)S(=O)(=O)CCN2[C@H](C)CCC[C@@H]2C)sc2ccccc12 [Cpd 22, N-(3-Methylbenzo[b]thiophen-2-yl)-N-(4-trifluoromethoxy-benzyl)-2-(cis-2,6-dimethylpiperidin-1-yl)ethylsulfonamide]	99%	13 nM
Cc1c(N(Cc2ccc(OC(F)(F)F)cc2)S(=O)(=O)CCN2CCC(CO)CC2)sc2ccccc12 [Cpd 23, N-(3-Methylbenzo[b]thiophen-2-yl)-N-(4-trifluoromethoxy-benzyl)-2-(4-hydroxymethylpiperidin-1-yl)ethylsulfonamide]	97%	44 nM
Cc1c(N(Cc2ccc(OC(F)(F)F)cc2)S(=O)(=O)CCN2CCCC(C(F)(F)F)C2)sc2ccccc12 (centres unmarked) [Cpd 24, N-(3-Methylbenzo[b]thiophen-2-yl)-N-(4-trifluoromethoxy-benzyl)-2-(3-trifluoromethylpiperidin-1-yl)ethylsulfonamide]	99%	27 nM
Cc1c(N(Cc2ccc(OC(F)(F)F)cc2)S(=O)(=O)CCN2CCNCC2)sc2ccccc12 [Cpd 26, N-(3-Methylbenzo[b]thiophen-2-yl)-N-(4-trifluoromethoxy-benzyl)-2-(piperazin-1-yl)ethylsulfonamide]	23%	
Cc1c(N(Cc2ccc(OC(F)(F)F)cc2)S(=O)(=O)CCN2CCNC(=O)C2)sc2ccccc12 [Cpd 27, N-(3-Methylbenzo[b]thiophen-2-yl)-N-(4-trifluoromethoxy-benzyl)-2-(3-oxopiperazin-1-yl)ethylsulfonamide]	101%	20 nM
Cc1c(N(Cc2ccc(OC(F)(F)F)cc2)S(=O)(=O)CCN2CCN(C)CC2)sc2ccccc12 [Cpd 28, N-(3-Methylbenzo[b]thiophen-2-yl)-N-(4-trifluoromethoxy-benzyl)-2-(4-methylpiperazin-1-yl)ethylsulfonamide]	25%	
CC(=O)N1CCN(CCS(=O)(=O)N(Cc2ccc(OC(F)(F)F)cc2)c2sc3ccccc3c2C)CC1 [Cpd 29, N-(3-Methylbenzo[b]thiophen-2-yl)-N-(4-trifluoromethoxy-benzyl)-2-(4-acetylpiperazin-1-yl)ethylsulfonamide]	101%	12 nM
Cc1c(N(Cc2ccc(OC(F)(F)F)cc2)S(=O)(=O)CCN2CCN(c3ccccc3)CC2)sc2ccccc12 [Cpd 30, N-(3-Methylbenzo[b]thiophen-2-yl)-N-(4-trifluoromethoxy-benzyl)-2-(4-phenylpiperazin-1-yl)ethylsulfonamide]	96%	33 nM
Cc1c(N(Cc2ccc(OC(F)(F)F)cc2)S(=O)(=O)CCN2CCNC(=O)CC2)sc2ccccc12 [Cpd 31, N-(3-Methylbenzo[b]thiophen-2-yl)-N-(4-trifluoromethoxy-benzyl)-2-(5-oxohomopiperazin-1-yl)ethylsulfonamide]	99%	27 nM
Cc1c(N(Cc2ccc(OC(F)(F)F)cc2)S(=O)(=O)CCN2CCOCC2)sc2ccccc12 [Cpd 32, N-(3-Methylbenzo[b]thiophen-2-yl)-N-(4-trifluoromethoxy-benzyl)-2-(morpholin-4-yl)ethylsulfonamide]	99%	12 nM
